Test results reported in ChEMBL document CHEMBL1141346, “Psammaplysenes C and D, cytotoxic alkaloids from Psammoclemma sp” (J Nat Prod, 2007).

How the values were obtained:
THP-1 = assay: Cytotoxicity against human THP1 cells expressing P2X7 receptor after 21 hrs by Almar blue cytotoxicity assay; format: functional, cell-based; details: THP-1, 21 h
[1] = molecular target: T1, P2X purinoceptor 7 (Homo sapiens) (UniProt Q99572); assay: Antagonist activity at P2X7 receptor expressed in human THP1 cells after 90 mins; format: functional, cell-based; design: scale not given: the % may be the effect or the level left; details: THP-1
T1 sequence (whole entry): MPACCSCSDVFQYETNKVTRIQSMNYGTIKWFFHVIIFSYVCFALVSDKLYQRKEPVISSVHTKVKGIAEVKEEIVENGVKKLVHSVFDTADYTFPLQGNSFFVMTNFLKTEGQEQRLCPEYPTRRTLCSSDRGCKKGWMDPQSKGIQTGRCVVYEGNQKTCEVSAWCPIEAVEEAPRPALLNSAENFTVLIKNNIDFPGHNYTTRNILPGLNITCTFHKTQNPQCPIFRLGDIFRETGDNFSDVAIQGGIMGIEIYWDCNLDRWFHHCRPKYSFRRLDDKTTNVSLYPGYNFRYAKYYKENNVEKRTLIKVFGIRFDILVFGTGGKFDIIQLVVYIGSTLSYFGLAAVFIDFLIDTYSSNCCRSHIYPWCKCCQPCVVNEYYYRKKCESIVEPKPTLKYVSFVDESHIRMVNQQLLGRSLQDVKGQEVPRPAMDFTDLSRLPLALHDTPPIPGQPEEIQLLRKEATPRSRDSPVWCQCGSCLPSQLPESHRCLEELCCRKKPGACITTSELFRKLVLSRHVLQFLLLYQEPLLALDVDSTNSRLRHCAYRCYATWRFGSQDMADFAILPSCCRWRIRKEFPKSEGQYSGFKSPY

In the case of `CN(C)CCCOc1ccc(/C=C/C(=O)N(C)CCCOc2c(Br)cc(CCN(C)C)cc2Br)cc1Br` [PSAMMAPLYSENE C], the IC50 (THP-1) is reported as 7 µM and the Activity [1] is reported as 44%.

In the case of `CN(C)CCCOc1c(Br)cc(/C=C/C(=O)N(C)CCCOc2c(Br)cc(CCN(C)C)cc2Br)cc1Br` [PSAMMAPLYSENE D], the IC50 (THP-1) is reported as 7 µM and the Activity [1] is reported as 72%.
